# Assay results from patent US5670618A, “Insulin-like peptide” (The State University of New Jersey, priority 1995, dated 1997).
# pIC50, pKd: −log10 of the molar value.
# Experiments:
# [1] = biological target: isolated plasma membranes (high affinity binding sites for insulin and IGF-I); assay: binding assays with isolated plasma membranes; set-up: species or system S. cerevisiae
# [2] = test system: solubilized and wheat germ column purified plasma membrane preparations; assay: binding to solubilized and wheat germ column purified plasma membrane preparations; set-up: species or system S. cerevisiae; details: wheat germ column purified membranes, comparable conditions
# [3] = biological target: T1, membrane-associated adenylate cyclase from Neurospora crassa (Neurospora crassa, UniProt Q01631); details: insulin at low doses (10^-9 M); cited from earlier work
# T1 construct: host or cells: Neurospora crassa membranes
# Tetrahymena pyriformis = details: cited from earlier work
# [4] = test system: cell wall-less strain of Neurospora; details: cited from earlier work
# intact yeast cells = assay: porcine 125I-insulin binding and displacement, intact yeast cells; set-up: species or system S. cerevisiae
# Description: Insulin binding studies with intact logarithmic and stationary phase yeast cells were performed under typical conditions for mammalian cells (25,26). In logarithmic phase yeast, porcine ^125 I-insulin binding had reached apparent equilibrium by 1-2 h and represented ca. 0.5% of the total counts specifically bound (FIG. 2a). At this time, greater than 95% of the labelled insulin appeared to be intact, as judged by TCA precipitable counts. Unlabelled porcine insulin displaced labelled insulin from intact yeast cells in a dose dependent fashion with 50% bound occurring around 10^-9 M (FIG. 2b). This value is in good agreement with the value obtained for displacement of insulin from mammalian cells.
# [5] = test system: cell wall-less strain of Neurospora; details: added to nutritionally rich, chemically defined culture medium; cited from earlier work
# [6] = test system: stationary phase cells (yeast); assay: stimulation of glycogen synthesis in yeast (14C-glucose incorporation); type: cell-based; details: binding to insulin-related receptor on yeast cell, under proper conditions
# Description: To assay the effect of ScILP on glycogen synthesis, stationary phase cells are preincubated in phosphate buffer with various doses of ScILP (or a variant thereof). After 30 min of incubation in the presence of 1% glucose and uniformly labelled ^14 C-glucose, the cells are pelleted, resuspended in sodium carbonate, neutralized with HCl and treated with α-amylase to release the glucose incorporated into the newly synthesized glycogen. The enzymatically released glucose is collected and quantitated by scintillation counting.
# [7] = test system: insulin receptor-like protein in yeast; assay: autophosphorylation of insulin receptor-like protein in yeast; type: cell-based
# T1 sequence (Q01631 whole entry): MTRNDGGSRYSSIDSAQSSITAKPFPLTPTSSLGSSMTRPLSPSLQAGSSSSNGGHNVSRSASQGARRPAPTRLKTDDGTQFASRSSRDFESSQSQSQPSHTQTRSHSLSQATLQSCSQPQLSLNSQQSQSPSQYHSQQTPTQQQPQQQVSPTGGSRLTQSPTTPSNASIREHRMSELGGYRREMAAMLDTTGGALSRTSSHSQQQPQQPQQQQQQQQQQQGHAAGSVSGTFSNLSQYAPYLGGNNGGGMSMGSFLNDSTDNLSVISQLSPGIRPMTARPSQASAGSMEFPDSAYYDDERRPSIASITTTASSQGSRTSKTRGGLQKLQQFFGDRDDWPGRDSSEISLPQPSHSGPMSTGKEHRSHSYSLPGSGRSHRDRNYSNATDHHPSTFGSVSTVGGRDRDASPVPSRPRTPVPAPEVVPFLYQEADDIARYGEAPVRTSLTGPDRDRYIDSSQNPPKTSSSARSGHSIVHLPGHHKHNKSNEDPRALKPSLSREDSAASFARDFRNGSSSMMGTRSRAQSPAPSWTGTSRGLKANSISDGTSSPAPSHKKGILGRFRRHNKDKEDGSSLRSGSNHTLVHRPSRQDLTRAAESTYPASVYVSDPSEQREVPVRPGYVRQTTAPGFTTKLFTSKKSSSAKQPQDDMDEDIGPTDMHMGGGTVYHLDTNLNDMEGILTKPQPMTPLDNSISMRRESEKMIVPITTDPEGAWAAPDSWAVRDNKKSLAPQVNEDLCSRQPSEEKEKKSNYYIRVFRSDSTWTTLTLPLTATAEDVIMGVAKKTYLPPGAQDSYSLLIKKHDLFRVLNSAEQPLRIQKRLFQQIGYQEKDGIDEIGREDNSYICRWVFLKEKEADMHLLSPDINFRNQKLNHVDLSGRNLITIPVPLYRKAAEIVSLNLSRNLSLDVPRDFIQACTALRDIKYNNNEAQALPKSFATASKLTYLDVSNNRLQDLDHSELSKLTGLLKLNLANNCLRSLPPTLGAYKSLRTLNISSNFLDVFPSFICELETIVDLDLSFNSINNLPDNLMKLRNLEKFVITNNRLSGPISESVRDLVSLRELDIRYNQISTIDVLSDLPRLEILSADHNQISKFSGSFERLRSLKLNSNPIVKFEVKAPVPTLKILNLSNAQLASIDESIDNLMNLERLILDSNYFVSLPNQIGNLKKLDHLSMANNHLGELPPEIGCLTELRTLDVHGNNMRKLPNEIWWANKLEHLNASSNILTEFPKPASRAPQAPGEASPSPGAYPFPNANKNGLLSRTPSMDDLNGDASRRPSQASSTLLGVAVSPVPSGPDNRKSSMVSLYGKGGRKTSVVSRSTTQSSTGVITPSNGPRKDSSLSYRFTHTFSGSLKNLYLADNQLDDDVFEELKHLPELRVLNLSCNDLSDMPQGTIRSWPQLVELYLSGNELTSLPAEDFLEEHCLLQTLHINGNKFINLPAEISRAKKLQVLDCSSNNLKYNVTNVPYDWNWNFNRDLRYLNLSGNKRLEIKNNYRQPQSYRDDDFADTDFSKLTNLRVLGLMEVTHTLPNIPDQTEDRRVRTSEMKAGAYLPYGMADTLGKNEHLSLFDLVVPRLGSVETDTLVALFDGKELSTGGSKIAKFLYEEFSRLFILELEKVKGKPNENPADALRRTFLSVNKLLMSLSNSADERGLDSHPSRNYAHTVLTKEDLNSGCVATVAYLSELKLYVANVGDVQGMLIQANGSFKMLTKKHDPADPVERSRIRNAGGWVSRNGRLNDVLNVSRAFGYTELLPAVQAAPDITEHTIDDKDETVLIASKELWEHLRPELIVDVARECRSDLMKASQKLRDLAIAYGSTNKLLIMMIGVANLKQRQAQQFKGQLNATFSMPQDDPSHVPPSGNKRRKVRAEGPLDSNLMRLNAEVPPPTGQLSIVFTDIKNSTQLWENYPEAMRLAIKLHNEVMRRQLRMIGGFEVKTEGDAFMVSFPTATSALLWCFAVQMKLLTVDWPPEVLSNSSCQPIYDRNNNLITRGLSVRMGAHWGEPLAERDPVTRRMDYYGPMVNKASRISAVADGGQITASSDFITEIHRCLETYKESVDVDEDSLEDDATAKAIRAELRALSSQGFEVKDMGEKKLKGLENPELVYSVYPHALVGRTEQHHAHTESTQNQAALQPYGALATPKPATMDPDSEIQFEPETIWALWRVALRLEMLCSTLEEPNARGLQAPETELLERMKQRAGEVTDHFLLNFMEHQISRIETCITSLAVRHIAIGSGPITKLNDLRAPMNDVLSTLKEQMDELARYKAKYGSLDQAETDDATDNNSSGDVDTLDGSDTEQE
substance,measurement,setting,value
insulin,pKd,[1],9.15
same,specific binding (of 4-5% total binding),[2],1-2%
bovine insulin,effect on adenylate cyclase specific activity,[3],significantly inhibit
same,effect on glucose uptake,Tetrahymena pyriformis,small effect
same,increase of 14C-labelled glucose incorporation into glycogen,"[4]; 30 min treatment, 100 nM",41%
same,more glycogen than control cells,[4]; cells grown in presence of 100 nM insulin,40%
same,intracellular levels of UDPG-glucose by 31P-NMR,[4],increase
glucagon,effect on adenylate cyclase specific activity,[3],stimulated adenylate cyclase activity
porcine insulin,"labelled insulin intact, judged by TCA precipitable counts",intact yeast cells; at apparent equilibrium of binding (1-2 h),greater than 95%
same,pIC50,"intact yeast cells; intact yeast cells, dose dependent displacement, read-out: concentration of unlabelled insulin at 50% bound (displacement of labelled insulin)",~9.00
same,time to apparent binding equilibrium,intact yeast cells; logarithmic phase yeast,1 to 2 h
same,total counts specifically bound,"intact yeast cells; logarithmic phase yeast, at apparent equilibrium",ca. 0.5%
insulin-like growth factor (IGF-I),specific binding (of 4-5% total binding),[2],1-2%
proinsulin,"influence on growth, morphology and viability",[5],inactive
mammalian insulin,"influence on growth, morphology and viability",[5],"distinctively different morphology, enhanced growth, and extension of viability at the stationary phase in culture"
same,effect on glycogen synthesis,[6],stimulates glycogen synthesis
same,autophosphorylation of insulin receptor-like protein on tyrosine residues,[7],results in its autophosphorylation on tyrosine residues
reduced insulin,"influence on growth, morphology and viability",[5],inactive
